From PubChem BioAssay (NCI)
Several values for one entry are separate records, joined by “and”; a condition that tells them apart may be missing. Equal entries are not always repeated.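 These data come from cells grown in 96-well plates and exposed to compound for 48 hours at five concentrations. The concentration for 50% growth inhibition is given as GI50. Definition used: TGI = concentration required for complete inhibition of growth.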

Legend:
Assay in all cases: DTP human tumour cell line panel, 48 h
786-0 renal = tested on: 786-0 renal
A498 renal = tested on: A498 renal
A549 NSCLC = tested on: A549 NSCLC
ACHN renal = tested on: ACHN renal
BT-549 breast = tested on: BT-549 breast
CAKI-1 renal = tested on: CAKI-1 renal
CCRF-CEM leukemia = tested on: CCRF-CEM leukemia
COLO 205 colon = tested on: COLO 205 colon
DU-145 prostate = tested on: DU-145 prostate
EKVX NSCLC = tested on: EKVX NSCLC
HCC-2998 colon = tested on: HCC-2998 colon
HCT-116 colon = tested on: HCT-116 colon
HCT-15 colon = tested on: HCT-15 colon
HL-60(TB) leukemia = tested on: HL-60(TB) leukemia
HOP-62 NSCLC = tested on: HOP-62 NSCLC
HOP-92 NSCLC = tested on: HOP-92 NSCLC
HS 578T breast = tested on: HS 578T breast
HT29 colon = tested on: HT29 colon
IGROV1 ovarian = tested on: IGROV1 ovarian
K-562 leukemia = tested on: K-562 leukemia
KM12 colon = tested on: KM12 colon
LOX IMVI melanoma = tested on: LOX IMVI melanoma
M14 melanoma = tested on: M14 melanoma
MALME-3M melanoma = tested on: MALME-3M melanoma
MCF7 breast = tested on: MCF7 breast
MDA-MB-231 breast = tested on: MDA-MB-231 breast
MDA-MB-435 = tested on: MDA-MB-435
MDA-N = tested on: MDA-N
MOLT-4 leukemia = tested on: MOLT-4 leukemia
NCI-H226 lung = tested on: NCI-H226 lung
NCI-H23 lung = tested on: NCI-H23 lung
NCI-H460 lung = tested on: NCI-H460 lung
NCI-H522 lung = tested on: NCI-H522 lung
NCI/ADR-RES ovarian = tested on: NCI/ADR-RES ovarian
OVCAR-3 ovarian = tested on: OVCAR-3 ovarian
OVCAR-4 ovarian = tested on: OVCAR-4 ovarian
OVCAR-5 ovarian = tested on: OVCAR-5 ovarian
OVCAR-8 ovarian = tested on: OVCAR-8 ovarian
PC-3 prostate = tested on: PC-3 prostate
RPMI-8226 leukemia = tested on: RPMI-8226 leukemia
RXF 393 renal = tested on: RXF 393 renal
SF-268 CNS = tested on: SF-268 CNS
SF-295 CNS = tested on: SF-295 CNS
SF-539 CNS = tested on: SF-539 CNS
SK-MEL-2 melanoma = tested on: SK-MEL-2 melanoma
SK-MEL-28 melanoma = tested on: SK-MEL-28 melanoma
SK-MEL-5 melanoma = tested on: SK-MEL-5 melanoma
SK-OV-3 ovarian = tested on: SK-OV-3 ovarian
SN12C renal = tested on: SN12C renal
SNB-19 CNS = tested on: SNB-19 CNS
SNB-75 CNS = tested on: SNB-75 CNS
SR leukemia = tested on: SR leukemia
SW-620 colon = tested on: SW-620 colon
T-47D breast = tested on: T-47D breast
TK-10 renal = tested on: TK-10 renal
U251 CNS = tested on: U251 CNS
UACC-257 melanoma = tested on: UACC-257 melanoma
UACC-62 melanoma = tested on: UACC-62 melanoma
UO-31 renal = tested on: UO-31 renal

SMILES: Cc1ccc(OCC2OC(n3cnc4c(Br)nc(Br)nc43)CC2Oc2ccc(C)cc2)cc1 (stereo unspecified)
- GI50 (786-0 renal): 1.57 µM
- TGI (786-0 renal): 3.48 µM and 9.92 µM
- GI50 (A498 renal): 22.9 µM
- TGI (A498 renal): 20.6 µM and 41 µM
- TGI (A549 NSCLC): 30 µM and > 41.9 µM
- GI50 (ACHN renal): 5.29 µM
- TGI (ACHN renal): 14.8 µM and 4.93 µM
- GI50 (BT-549 breast): 9.96 µM
- TGI (BT-549 breast): 20.6 µM and 34.4 µM
- GI50 (CAKI-1 renal): 1.2 µM
- TGI (CAKI-1 renal): 2.26 µM and 4.03 µM
- GI50 (CCRF-CEM leukemia): 1.8 µM
- TGI (CCRF-CEM leukemia): 3.44 µM and > 25.5 µM
- GI50 (COLO 205 colon): 11.4 µM
- TGI (COLO 205 colon): 25.3 µM and 13.1 µM
- GI50 (DU-145 prostate): 13.1 µM
- TGI (DU-145 prostate): 23.8 µM and 5.88 µM
- GI50 (EKVX NSCLC): 1.52 µM
- TGI (EKVX NSCLC): 3.25 µM and 4.15 µM
- GI50 (HCC-2998 colon): 3.07 µM
- TGI (HCC-2998 colon): 11.8 µM and 7.24 µM
- GI50 (HCT-116 colon): 5.29 µM
- TGI (HCT-116 colon): 14.5 µM and 3.6 µM
- GI50 (HCT-15 colon): 1.45 µM
- TGI (HCT-15 colon): 3.24 µM and 4.73 µM
- TGI (HL-60(TB) leukemia): 21.8 µM
- GI50 (HOP-62 NSCLC): 9.08 µM
- TGI (HOP-62 NSCLC): 19.2 µM and 17.1 µM
- GI50 (HOP-92 NSCLC): 1.16 µM
- TGI (HOP-92 NSCLC): 2.55 µM and 5.36 µM
- GI50 (HS 578T breast): 14.4 µM and 2.96 µM
- TGI (HS 578T breast): 36 µM and 7.18 µM
- GI50 (HT29 colon): 2.32 µM
- TGI (HT29 colon): 8 µM and 7.2 µM
- GI50 (IGROV1 ovarian): 2.71 µM
- TGI (IGROV1 ovarian): 8.86 µM and 9.89 µM
- GI50 (K-562 leukemia): 1.94 µM
- TGI (K-562 leukemia): 3.92 µM and > 23.8 µM
- GI50 (KM12 colon): 2.46 µM
- TGI (KM12 colon): 8.76 µM and 9.56 µM
- GI50 (LOX IMVI melanoma): 1.42 µM
- TGI (LOX IMVI melanoma): 2.47 µM and 3.67 µM
- TGI (M14 melanoma): 10.6 µM and 7.47 µM
- GI50 (MALME-3M melanoma): 6.5 µM
- TGI (MALME-3M melanoma): 16.3 µM and 21.6 µM
- GI50 (MCF7 breast): 2.52 µM
- TGI (MCF7 breast): 8.4 µM and 30.3 µM
- GI50 (MDA-MB-231 breast): 1.74 µM
- TGI (MDA-MB-231 breast): 5.27 µM and 4.34 µM
- GI50 (MDA-MB-435): 6.85 µM
- TGI (MDA-MB-435): 19.4 µM and 19.5 µM
- GI50 (MDA-N): 6.2 µM
- TGI (MDA-N): 17.4 µM and 9.89 µM
- TGI (MOLT-4 leukemia): 4.34 µM and 5.42 µM
- GI50 (NCI-H226 lung): 1.63 µM
- TGI (NCI-H226 lung): 33 µM and 3.77 µM
- GI50 (NCI-H23 lung): 6.1 µM
- TGI (NCI-H23 lung): 16.7 µM and 15.4 µM
- GI50 (NCI-H460 lung): 1.86 µM and 10.7 µM
- TGI (NCI-H460 lung): 6.07 µM and 28 µM
- GI50 (NCI-H522 lung): 1.65 µM
- TGI (NCI-H522 lung): 2.8 µM and 3.27 µM
- GI50 (NCI/ADR-RES ovarian): 20.4 µM
- TGI (NCI/ADR-RES ovarian): 53.5 µM and 29.5 µM
- GI50 (OVCAR-3 ovarian): 3.77 µM
- TGI (OVCAR-3 ovarian): 14.3 µM and 19.1 µM
- GI50 (OVCAR-4 ovarian): 1.56 µM
- TGI (OVCAR-4 ovarian): 4.84 µM and 7.55 µM
- GI50 (OVCAR-5 ovarian): 16.1 µM
- TGI (OVCAR-5 ovarian): 34.2 µM and 42.2 µM
- GI50 (OVCAR-8 ovarian): 18.2 µM
- TGI (OVCAR-8 ovarian): 42.7 µM and 14.3 µM
- GI50 (PC-3 prostate): 5.42 µM
- TGI (PC-3 prostate): 16.2 µM and 11.8 µM
- GI50 (RPMI-8226 leukemia): 7.52 µM
- TGI (RPMI-8226 leukemia): 28.7 µM and > 71.3 µM
- GI50 (RXF 393 renal): 13.3 µM
- TGI (RXF 393 renal): 28.2 µM and 22.4 µM
- TGI (SF-268 CNS): 25.4 µM
- GI50 (SF-295 CNS): 2.22 µM
- TGI (SF-295 CNS): 5.28 µM and 25.9 µM
- GI50 (SF-539 CNS): 0.466 µM
- TGI (SF-539 CNS): 10.2 µM and 15.6 µM
- GI50 (SK-MEL-2 melanoma): 14.1 µM
- TGI (SK-MEL-2 melanoma): 28.3 µM and 8.15 µM
- TGI (SK-MEL-28 melanoma): 10.1 µM
- GI50 (SK-MEL-5 melanoma): 13.4 µM
- TGI (SK-MEL-5 melanoma): 23.8 µM and 23.7 µM
- GI50 (SK-OV-3 ovarian): 11.2 µM
- TGI (SK-OV-3 ovarian): 21.4 µM and > 54.2 µM
- GI50 (SN12C renal): 9.93 µM
- TGI (SN12C renal): 22.9 µM and 14.2 µM
- GI50 (SNB-19 CNS): 11.8 µM
- TGI (SNB-19 CNS): 22.9 µM and 17.8 µM
- GI50 (SNB-75 CNS): 8.32 µM
- TGI (SNB-75 CNS): 18.3 µM and 9.29 µM
- TGI (SR leukemia): 4.67 µM
- GI50 (SW-620 colon): 3.02 µM
- TGI (SW-620 colon): 10.1 µM and 12.3 µM
- GI50 (T-47D breast): 2.48 µM
- TGI (T-47D breast): 29.7 µM and 6.82 µM
- GI50 (TK-10 renal): 14.4 µM
- TGI (TK-10 renal): 28.4 µM and > 54.3 µM
- GI50 (U251 CNS): 1.61 µM
- TGI (U251 CNS): 3.99 µM and 4.82 µM
- GI50 (UACC-257 melanoma): 10.3 µM
- TGI (UACC-257 melanoma): 20.4 µM and 21.3 µM
- GI50 (UACC-62 melanoma): 3.1 µM
- TGI (UACC-62 melanoma): 11.4 µM and 20.6 µM
- GI50 (UO-31 renal): 11.9 µM
- TGI (UO-31 renal): 22.3 µM and 28.4 µM
